# Data: US20240285646A1, “METHODS AND COMPOSITIONS FOR LIPID FORMULATION OF LIPOPHILIC SMALL MOLECULE THERAPIES OF THE HETEROCYCLIC TYPE” (Neuronascent, Inc., priority 2021, published 2024)
# Values joined by “and” are separate entries in the source; they are usually repeats but may differ in a detail not shown here. Identical values can stand only once.
# Experiments:
# [1] = Solubility of NNI-362; format: physicochemical
# [2] = Phase 1A pharmacokinetics of oral NNI-362 in lipid-based formulation (Cohorts F and G); format: in vivo, human; conditions: for Extrap AUCinf / AUCinf / AUClast / Cmax / MRTinf / Tmax / t1/2 / AUC(0-inf) / AUC(0-t) / MRT inf / half-life: lipid formulation
# Description: Exemplary Formulation F2 was prepared by slowly adding NNI-362 into a jar containing 100 mL of lipid-based MCT/Kolliphor EL/Beeswax (95/3/2% w/w) while mixing and then stirring until all powder is wet. The actual weight of NNI-362 was between 11.88 and 12.12 g to provide the nominal concentration of 120 mg/ml.
# (§1) A Phase 1A, randomized, placebo-controlled, single and multiple dose, dose-escalation study was conducted to evaluate the safety, tolerability and pharmacokinetics of oral NNI-362 in healthy aged volunteers 50 to 72 years of age. Subjects were fasted prior to dose administration. The plasma concentrations of NNI-362 were determined by a validated bioanalytical method using liquid chromatography-tandem mass spectrometry (LC-MS/MS). The analytical range was 25.0-25000 pg/ml, with 0.0500 ml sample volumes. The stable label d5-NNI-362 was used as the internal standard for this assay.
# (§2) NNI-362 was formulated in 1% (w/v) methylcellulose in sterile water as an oral suspension that was administered to Cohorts A-E. NNI-362 was administered in a lipid-based formulation (medium-chain triglycerides, Kolliphor EL and beeswax; 95/3/2%; NNI-362 added to provide 120 mg/ml) oral suspension) for Cohorts F and G.
# (§3) PK data analysis was performed on the measurable plasma concentrations of NNI-362. The plasma concentration data were evaluated using Phoenix 64® WinNonlin® software (Version 8.3) to perform noncompartmental analysis. Nominal blood collection times were used in data analysis. The dose administered in dose group was entered into the program as mg/subject.
# (§4) The following PK parameters were determined for NNI-362 plasma concentrations for each subject: observed maximal plasma concentration (Cmax), observed time to reach Cmax (Tmax), area under the plasma concentration time curve up to the last blood collection time (AUClast), and extrapolated to infinity (AUCinf), the percent of AUCinf that was extrapolated (% Extrap AUCinf), terminal elimination half-life (t1/2), and mean residence time to infinity (MRTinf). Terminal t1/2, AUCinf, MRTinf could not be calculated in some subjects due to limited data or poor fit (r<0.8) of the terminal phase of the plasma concentration and time curve. Extrapolation of more than 20% of the AUC may result in unreliable values for the terminal parameters.
# The correlation coefficient for the terminal phase was determined using WinNonlin. Significant differences in selected pharmacokinetic parameters between the SAD and MAD dose groups of cohorts F and G were evaluated using the t-test (two tail, paired test; p<0.05).
# [3] = Phase 1A pharmacokinetics of oral NNI-362 in 1% methylcellulose suspension (Cohorts A-E); format: in vivo, human
# Description: as §1, §2, §3, §4
# [4] = Cohort F, 120 mg oral, MAD, individual subjects
# [5] = Cohort F, 120 mg oral, SAD, individual subjects
# [6] = Cohort G, 240 mg oral, MAD, individual subjects
# [7] = Cohort G, 240 mg oral, SAD, individual subjects
# [8] = human, plasma, po, 120 mg, Cohort F, 120 mg oral, MAD, cohort mean
# [9] = human, plasma, po, 120 mg, Cohort F, 120 mg oral, SAD, cohort mean
# [10] = human, plasma, po, 120 mg, Cohort F, 120 mg oral, SAD, individual subjects
# [11] = human, plasma, po, 240 mg, Cohort G, 240 mg oral, MAD, cohort mean
# [12] = human, plasma, po, 240 mg, Cohort G, 240 mg oral, SAD, cohort mean
# [13] = 60 mg oral, SAD, individual subjects
# [14] = 120 mg oral, SAD, individual subjects
# [15] = human, plasma, 60 mg oral, SAD, individual subjects
# [16] = human, plasma, 120 mg oral, SAD, individual subjects
compound,measurement,setting,value
CCOc1ccccc1NC(=S)N1CCCN(c2nc3cc(C)c(C)cc3cc2C#N)CC1 [NNI-362],solubility,[1]; common organic solvents,soluble in common organic solvents
same,solubility,[1]; water/aqueous solutions,insoluble in water/aqueous solutions
same,Extrap AUCinf,"[2]; Cohort F, 120 mg oral, MAD, cohort mean",30.0%
same,AUCinf,[2]; [4],1.28 ng·h/mL and 3.74 ng·h/mL and 8.95 ng·h/mL and 0.719 ng·h/mL and 2.44 ng·h/mL
same,AUClast,[2]; [4],1.15 ng·h/mL and 2.68 ng·h/mL and 3.8 ng·h/mL and 0.525 ng·h/mL and 1.77 ng·h/mL and 0.179 ng·h/mL
same,Cmax,[2]; [4],0.193 ng/mL and 0.144 ng/mL and 0.208 ng/mL and 0.0638 ng/mL and 0.126 ng/mL and 0.0404 ng/mL
same,Extrap AUCinf,[2]; [4],9.78% and 28.4% and 57.5% and 26.9% and 27.7%
same,MRTinf,[2]; [4],6.68 h and 19.3 h and 42.9 h and 9.7 h and 17.6 h
same,Tmax,[2]; [4],6 h and 2 h and 8 h
same,Extrap AUCinf,"[2]; Cohort F, 120 mg oral, SAD, cohort mean",43.8%
same,AUCinf,[2]; [5],0.8 ng·h/mL and 0.511 ng·h/mL
same,AUClast,[2]; [5],0.555 ng·h/mL and 1.21 ng·h/mL and 0.289 ng·h/mL and 0.561 ng·h/mL and 0.182 ng·h/mL
same,Cmax,[2]; [5],0.101 ng/mL and 0.208 ng/mL and 0.0484 ng/mL and 0.0834 ng/mL and 0.0701 ng/mL and 0.0435 ng/mL
same,Extrap AUCinf,[2]; [5],36.9% and 29.9% and 64.5%
same,MRTinf,[2]; [5],10.2 h and 12.4 h
same,Tmax,[2]; [5],6 h and 8 h and 2 h and 1 h and 4 h and 0.5 h
same,t1/2,[2]; [5],6.15 h and 8.13 h
same,Extrap AUCinf,"[2]; Cohort G, 240 mg oral, MAD, cohort mean",34.4%
same,AUCinf,[2]; [6],4.52 ng·h/mL and 0.426 ng·h/mL and 4.23 ng·h/mL and 3.98 ng·h/mL and 0.975 ng·h/mL
same,AUClast,[2]; [6],1.99 ng·h/mL and 0.235 ng·h/mL and 4 ng·h/mL and 2.61 ng·h/mL and 2.85 ng·h/mL and 0.569 ng·h/mL
same,Cmax,[2]; [6],0.124 ng/mL and 0.059 ng/mL and 0.679 ng/mL and 0.221 ng/mL and 0.267 ng/mL and 0.0822 ng/mL
same,Extrap AUCinf,[2]; [6],54.8% and 43.9% and 5.10% and 27.7% and 40.5%
same,MRTinf,[2]; [6],39.5 h and 7.10 h and 9.51 h and 18.8 h and 13.5 h
same,Tmax,[2]; [6],2 h and 6 h and 1 h
same,t1/2,[2]; [6],26.2 h and 4.29 h and 5.10 h and 13.5 h and 9.24 h
same,Extrap AUCinf,"[2]; Cohort G, 240 mg oral, SAD, cohort mean",28.3%
same,AUCinf,[2]; [7],0.79 ng·h/mL and 2.09 ng·h/mL and 1.09 ng·h/mL
same,AUClast,[2]; [7],0.103 ng·h/mL and 0.677 ng·h/mL and 0.243 ng·h/mL and 1.02 ng·h/mL and 0.88 ng·h/mL
same,Cmax,[2]; [7],0.0523 ng/mL and 0.0316 ng/mL and 0.13 ng/mL and 0.0857 ng/mL and 0.0846 ng/mL and 0.21 ng/mL
same,Extrap AUCinf,[2]; [7],14.4% and 51.1% and 19.3%
same,MRTinf,[2]; [7],7.76 h and 36.9 h and 5.56 h
same,Tmax,[2]; [7],2 h and 6 h and 1 h and 4 h
same,t1/2,[2]; [7],2.6 h and 2.30 h
same,Concentration,"[2]; Formulation F2, Cohort F, 120 mg single dose, Day 1, K3 EDTA human plasma, patient SRI-F-005, 0 h",< LLOQ
same,Concentration,"[2]; Formulation F2, Cohort F, 120 mg single dose, Day 1, K3 EDTA human plasma, patient SRI-F-005, 12 h",< LLOQ
same,Concentration,"[2]; Formulation F2, Cohort F, 120 mg single dose, Day 1, K3 EDTA human plasma, patient SRI-F-005, 24 h",< LLOQ
same,Tmax,"[2]; human, plasma, oral, range over Cohorts F and G, SAD and MAD, read-out: Tmax values",0.5 to 8 h
same,AUC(0-inf),[2]; [8],3.43 ± 3.3 ng·h/mL
same,AUC(0-t),[2]; [8],1.68 ng·h/mL
same,MRT inf,[2]; [8],19.2 ± 14.3 h
same,half-life,[2]; [8],12.2 ± 10.2 h
same,Cmax,"[2]; human, plasma, po, 120 mg, Cohort F, 120 mg oral, MAD, cohort mean, read-out: Cmax",0.129 ng/mL
same,Cmax,"[2]; human, plasma, po, 120 mg, Cohort F, 120 mg oral, MAD, cohort mean, read-out: Cmax after multiple doses",0.129 ± 0.0673 ng/mL
same,Tmax,"[2]; human, plasma, po, 120 mg, Cohort F, 120 mg oral, MAD, cohort mean, read-out: Tmax",4.33 h
same,AUC(0-inf),[2]; [9],0.59 ± 0.184 ng·h/mL
same,AUC(0-t),[2]; [9],0.559 ng·h/mL
same,MRT inf,[2]; [9],9.99 ± 2.55 h
same,half-life,[2]; [9],6.24 ± 1.84 h
same,Cmax,"[2]; human, plasma, po, 120 mg, Cohort F, 120 mg oral, SAD, cohort mean, read-out: Cmax",0.0924 ± 0.0606 ng/mL
same,Tmax,"[2]; human, plasma, po, 120 mg, Cohort F, 120 mg oral, SAD, cohort mean, read-out: Tmax",3.58 h
same,AUC(0-inf),[2]; [10],0.458 ng·h/mL
same,MRT inf,[2]; [10],7.35 h
same,half-life,[2]; [10],4.45 h
same,AUC(0-inf),[2]; [11],2.83 ± 1.96 ng·h/mL
same,AUC(0-t),[2]; [11],2.04 ng·h/mL
same,MRT inf,[2]; [11],17.7 ± 13 h
same,half-life,[2]; [11],11.7 ± 8.94 h
same,Cmax,"[2]; human, plasma, po, 240 mg, Cohort G, 240 mg oral, MAD, cohort mean, read-out: Cmax",0.239 ± 0.23 ng/mL
same,Tmax,"[2]; human, plasma, po, 240 mg, Cohort G, 240 mg oral, MAD, cohort mean, read-out: Tmax",3.17 h
same,AUC(0-inf),[2]; [12],1.32 ± 0.681 ng·h/mL
same,AUC(0-t),[2]; [12],0.585 ng·h/mL
same,MRT inf,[2]; [12],16.7 ± 17.5 h
same,half-life,[2]; [12],2.58 ± 0.25 h
same,Cmax,"[2]; human, plasma, po, 240 mg, Cohort G, 240 mg oral, SAD, cohort mean, read-out: Cmax",0.099 ng/mL
same,Tmax,"[2]; human, plasma, po, 240 mg, Cohort G, 240 mg oral, SAD, cohort mean, read-out: Tmax",2.83 h
same,Cmax,"[2]; human, plasma, po, 240 mg, Cohort G, 240 mg oral, SAD, cohort mean, read-out: mean Cmax",0.099 ± 0.0639 ng/mL
same,half-life,"[2]; human, plasma, po, 240 mg, Cohort G, 240 mg oral, SAD, individual subjects",2.8 h
same,concentration at 0.5 h,"[2]; oral, Formulation F2, Cohort F, 120 mg single dose, Day 1, K3 EDTA human plasma, patient SRI-F-005, 0.5 h",0.0768 ng/mL
same,concentration at 1 h,"[2]; oral, Formulation F2, Cohort F, 120 mg single dose, Day 1, K3 EDTA human plasma, patient SRI-F-005, 1 h",0.0834 ng/mL
same,concentration at 2 h,"[2]; oral, Formulation F2, Cohort F, 120 mg single dose, Day 1, K3 EDTA human plasma, patient SRI-F-005, 2 h",0.0388 ng/mL
same,concentration at 4 h,"[2]; oral, Formulation F2, Cohort F, 120 mg single dose, Day 1, K3 EDTA human plasma, patient SRI-F-005, 4 h",0.0253 ng/mL
same,concentration at 6 h,"[2]; oral, Formulation F2, Cohort F, 120 mg single dose, Day 1, K3 EDTA human plasma, patient SRI-F-005, 6 h",0.0267 ng/mL
same,concentration at 8 h,"[2]; oral, Formulation F2, Cohort F, 120 mg single dose, Day 1, K3 EDTA human plasma, patient SRI-F-005, 8 h",0.0263 ng/mL
same,Cmax,"[3]; 20 mg oral, MAD, individual subjects",0.0251 ng/mL
same,AUClast,[3]; [13],0.623 ng·h/mL
same,Cmax,[3]; [13],0.069 ng/mL and 0.0468 ng/mL and 0.0336 ng/mL
same,Extrap AUCinf,[3]; [13],24.1%
same,Tmax,[3]; [13],6 h and 24 h
same,Cmax,[3]; [14],0.0426 ng/mL and 0.0601 ng/mL
same,Extrap AUCinf,[3]; [14],54.5%
same,Tmax,[3]; [14],6 h and 2 h
same,plasma concentrations of NNI-362,"[3]; Cohort A, single oral dose of 10 mg per subject, LLOQ 25 pg/ml",no plasma samples from these subjects contained quantifiable concentrations
same,plasma drug concentrations,"[3]; Cohort B, 20 mg oral, two subjects, one plasma sample each",> 0.025 ng/mL
same,AUC(0-inf),[3]; [15],0.622 ng·h/mL
same,MRT inf,[3]; [15],9.2 h
same,half-life,[3]; [15],4.09 h
same,AUC(0-inf),[3]; [16],0.908 ng·h/mL
same,MRT inf,[3]; [16],5.5 h
same,half-life,[3]; [16],13.7 h
same,Cmax,"[3]; human, plasma, po, 20 mg, 20 mg oral, MAD, individual subjects, read-out: Cmax",0.0151 ng/mL
same,Tmax,"[3]; human, plasma, po, 20 mg, 20 mg oral, MAD, individual subjects, read-out: Tmax",12 h
same,AUC(0-t),"[3]; human, plasma, po, 60 mg, 60 mg oral, SAD, individual subjects",0.473 ng·h/mL
same,AUC(0-t),"[3]; human, plasma, po, 120 mg, 120 mg oral, SAD, individual subjects",0.414 ng·h/mL
same,Cmax,"[3]; human, plasma, po, 120 mg, 120 mg oral, SAD, individual subjects, read-out: Cmax",0.037 ng/mL
